Data as given in BindingDB's records for PubMed 32711292 (n/a, 2020).

Key:
[1] = target: T1, Maltase-glucoamylase (Homo sapiens, UniProt O43451); test: Inhibition of alpha-glucosidase (unknown origin) by HPLC analysis
[2] = target: T1, Maltase-glucoamylase; test: Inhibition of alpha-glucosidase (unknown origin)

T1 sequence (O43451 whole entry): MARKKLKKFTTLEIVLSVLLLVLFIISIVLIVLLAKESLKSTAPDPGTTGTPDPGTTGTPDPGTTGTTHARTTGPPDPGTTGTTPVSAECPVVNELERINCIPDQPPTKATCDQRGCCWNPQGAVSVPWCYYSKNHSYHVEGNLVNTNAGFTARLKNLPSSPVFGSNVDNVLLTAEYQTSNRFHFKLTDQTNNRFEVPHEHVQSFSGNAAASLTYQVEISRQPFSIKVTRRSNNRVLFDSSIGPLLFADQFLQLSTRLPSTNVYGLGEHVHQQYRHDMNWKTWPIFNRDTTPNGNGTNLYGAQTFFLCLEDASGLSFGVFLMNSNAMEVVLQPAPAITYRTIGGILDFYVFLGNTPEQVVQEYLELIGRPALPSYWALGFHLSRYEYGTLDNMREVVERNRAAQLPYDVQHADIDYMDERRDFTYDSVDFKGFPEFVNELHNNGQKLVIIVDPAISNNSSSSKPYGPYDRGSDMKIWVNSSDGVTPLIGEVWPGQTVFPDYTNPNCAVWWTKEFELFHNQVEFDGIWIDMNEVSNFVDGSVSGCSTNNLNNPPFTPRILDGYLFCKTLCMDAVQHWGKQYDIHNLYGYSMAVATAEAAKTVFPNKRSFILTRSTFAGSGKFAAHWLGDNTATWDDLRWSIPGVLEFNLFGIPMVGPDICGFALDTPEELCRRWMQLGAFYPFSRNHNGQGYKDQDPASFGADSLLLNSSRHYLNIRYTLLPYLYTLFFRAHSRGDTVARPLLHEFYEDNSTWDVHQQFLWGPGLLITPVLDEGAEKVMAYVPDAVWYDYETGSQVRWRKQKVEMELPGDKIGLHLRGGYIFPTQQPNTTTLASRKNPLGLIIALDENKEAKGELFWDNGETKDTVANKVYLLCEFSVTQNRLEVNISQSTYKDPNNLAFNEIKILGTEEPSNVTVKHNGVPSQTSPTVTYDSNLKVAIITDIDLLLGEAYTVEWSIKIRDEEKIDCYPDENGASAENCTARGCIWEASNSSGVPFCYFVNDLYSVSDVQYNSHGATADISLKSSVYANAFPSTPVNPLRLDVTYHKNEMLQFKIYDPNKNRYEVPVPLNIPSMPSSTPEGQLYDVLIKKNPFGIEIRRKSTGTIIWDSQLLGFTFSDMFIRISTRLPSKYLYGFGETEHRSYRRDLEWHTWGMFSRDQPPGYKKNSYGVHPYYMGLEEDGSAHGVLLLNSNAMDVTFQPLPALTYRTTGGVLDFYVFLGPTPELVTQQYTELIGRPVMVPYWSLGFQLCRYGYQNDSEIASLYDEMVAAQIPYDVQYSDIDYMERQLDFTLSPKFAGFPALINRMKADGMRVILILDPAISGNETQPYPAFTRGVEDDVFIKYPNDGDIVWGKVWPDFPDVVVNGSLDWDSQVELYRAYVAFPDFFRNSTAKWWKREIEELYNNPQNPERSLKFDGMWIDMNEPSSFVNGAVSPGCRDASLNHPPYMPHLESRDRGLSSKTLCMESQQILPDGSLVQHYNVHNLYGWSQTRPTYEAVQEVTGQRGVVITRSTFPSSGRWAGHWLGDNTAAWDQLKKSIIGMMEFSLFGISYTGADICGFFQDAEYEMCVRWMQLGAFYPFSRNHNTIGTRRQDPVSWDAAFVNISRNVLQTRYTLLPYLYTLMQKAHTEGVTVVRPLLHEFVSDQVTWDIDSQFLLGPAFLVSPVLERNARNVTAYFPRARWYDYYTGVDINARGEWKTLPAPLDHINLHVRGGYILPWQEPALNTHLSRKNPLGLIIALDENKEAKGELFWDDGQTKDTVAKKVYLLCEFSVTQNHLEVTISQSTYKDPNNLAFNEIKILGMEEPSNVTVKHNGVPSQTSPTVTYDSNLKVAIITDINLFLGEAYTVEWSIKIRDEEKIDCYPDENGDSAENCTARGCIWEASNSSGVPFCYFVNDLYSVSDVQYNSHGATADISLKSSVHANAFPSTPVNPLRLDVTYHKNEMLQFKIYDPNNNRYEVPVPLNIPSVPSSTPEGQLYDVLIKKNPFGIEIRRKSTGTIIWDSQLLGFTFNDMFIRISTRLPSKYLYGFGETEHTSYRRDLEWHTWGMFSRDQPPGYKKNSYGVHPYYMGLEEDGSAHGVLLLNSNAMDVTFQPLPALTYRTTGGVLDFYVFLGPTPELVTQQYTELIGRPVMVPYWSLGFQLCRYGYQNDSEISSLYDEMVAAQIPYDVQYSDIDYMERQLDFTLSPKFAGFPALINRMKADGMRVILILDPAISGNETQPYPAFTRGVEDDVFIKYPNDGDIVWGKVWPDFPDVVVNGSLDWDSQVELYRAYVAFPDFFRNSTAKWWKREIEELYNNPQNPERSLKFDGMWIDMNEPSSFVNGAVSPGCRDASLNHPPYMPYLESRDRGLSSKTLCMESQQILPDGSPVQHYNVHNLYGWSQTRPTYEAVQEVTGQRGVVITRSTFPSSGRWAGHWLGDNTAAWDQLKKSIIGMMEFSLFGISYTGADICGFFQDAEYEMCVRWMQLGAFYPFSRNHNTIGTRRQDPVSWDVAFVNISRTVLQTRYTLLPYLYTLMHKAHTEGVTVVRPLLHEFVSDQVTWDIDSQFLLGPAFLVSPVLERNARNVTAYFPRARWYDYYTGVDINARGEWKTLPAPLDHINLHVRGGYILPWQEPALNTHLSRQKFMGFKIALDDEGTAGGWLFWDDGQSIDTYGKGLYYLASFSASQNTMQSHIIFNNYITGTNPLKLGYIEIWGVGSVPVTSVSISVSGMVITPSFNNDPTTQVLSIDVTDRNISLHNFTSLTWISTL

Structure (SMILES)	IC50 [1] [µM]	IC50 [2] [µM]
COc1cc([C@@H]2Oc3cc(CCc4ccc(O)cc4)cc(OC)c3O[C@H]2CO)cc(OC)c1O	9460	
COc1ccc(CCc2cc(O)c(O)c(OC)c2)cc1	200	
COc1cc(O)cc(CCc2ccc(O)c(OC)c2)c1 [GIGANTOL]		103
COc1cc(CCc2cccc(O)c2)cc(O)c1O	214	
COc1cc(O)cc(CCc2cccc(O)c2)c1 [Batatasin III (4)]		149
